ChEMBL document CHEMBL5143692, “Design, synthesis and conformation-activity relationship analysis of LNA/BNA-type 5'-O-aminoribosyluridine as MraY inhibitors” (Bioorg Med Chem, 2022)
pIC50: −log10 of the molar value. Converted amounts (≈) assume the structure as drawn.

Columns and labels:
[1] = molecular target: T1, Phospho-N-acetylmuramoyl-pentapeptide-transferase (Staphylococcus aureus, UniProt P0C1R8); test: Inhibition of Staphylococcus aureus MraY assessed as reduction of dansylated lipid I formation using UDP-MurNAcdansylpentapeptide as substrate incubated for 3 to 4 hrs by fluorescence based analysis
T1 sequence (P0C1R8 whole entry): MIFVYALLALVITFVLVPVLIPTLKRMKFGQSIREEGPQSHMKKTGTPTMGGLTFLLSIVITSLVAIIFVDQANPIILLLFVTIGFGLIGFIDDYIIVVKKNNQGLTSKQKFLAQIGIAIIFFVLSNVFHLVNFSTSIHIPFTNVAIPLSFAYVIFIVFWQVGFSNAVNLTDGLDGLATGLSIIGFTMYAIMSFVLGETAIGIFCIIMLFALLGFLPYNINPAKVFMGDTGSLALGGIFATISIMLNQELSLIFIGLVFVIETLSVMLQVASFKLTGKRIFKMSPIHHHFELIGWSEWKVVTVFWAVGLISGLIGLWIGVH

[2] = system: Mycobacteroides abscessus; test: Antibacterial activity against Mycobacterium abscessus ATCC 19977 assessed as inhibition of bacterial growth incubated for 5 days by microplate reader analysis; type: functional; conditions: ATCC 19977, 120 h, time 5 day

| Compound | pIC50 [1] | MIC50 [2] [µg/mL] |
| --- | --- | --- |
| NC[C@H]1O[C@@H](O[C@@H](C#Cc2ccccc2)[C@H]2O[C@@H](n3ccc(=O)[nH]c3=O)[C@H](O)[C@@H]2O)[C@H](O)[C@@H]1O | 5.64 | > 32 |
| C#C[C@H](O[C@@H]1O[C@H](CN)[C@@H](O)[C@H]1O)[C@@]12CO[C@@H]([C@H](n3ccc(=O)[nH]c3=O)O1)[C@@H]2O | 4.62 | > 32 |
| C#C[C@H](O[C@@H]1O[C@H](CN)[C@@H](O)[C@H]1O)[C@H]1O[C@@H](n2ccc(=O)[nH]c2=O)[C@H](O)[C@@H]1O | 4.70 | > 32 |
| NC[C@H]1O[C@@H](O[C@@H](C#Cc2ccccc2)[C@@]23CO[C@@H]([C@H](n4ccc(=O)[nH]c4=O)O2)[C@@H]3O)[C@H](O)[C@@H]1O | 4.43 | > 32 |
| NC[C@H]1O[C@@H](OC[C@@]23CO[C@@H]([C@H](n4ccc(=O)[nH]c4=O)O2)[C@@H]3O)[C@H](O)[C@@H]1O | 4.34 | > 32 |
| CC[C@H](O[C@@H]1O[C@H](CN)[C@@H](O)[C@H]1O)[C@@]12CO[C@@H]([C@H](n3ccc(=O)[nH]c3=O)O1)[C@@H]2O | 5.35 | 32 (≈ 77 µM) |
